In brackets after ≈: the same amount, converted by molar mass.
tested on: Staphylococcus aureus; assay: Antimicrobial activity against Staphylococcus aureus 2171 by broth microdilution method; assay type: functional

| SMILES | MIC |
| --- | --- |
| CC1(C)S[C@@H]2[C@H](NC(=O)[C@H](N)c3ccccc3)C(=O)N2[C@H]1C(=O)O [AMPICILLIN] | 4 µg/mL (≈ 11.4 µM) |
| CCC[C@@H]1C[C@@H](C(=O)N[C@@H]([C@H]2O[C@H](SC)[C@H](O)[C@@H](O)[C@H]2O)[C@H](C)Cl)N(C)C1 [CLINDAMYCIN] | ≥ 128 µg/mL |
| CCN1CCN(c2cc3c(cc2F)c(=O)c(C(=O)O)cn3C2CC2)CC1 [ENROFLOXACIN] | 8 µg/mL (≈ 22.3 µM) |
| CC[C@H]1OC(=O)[C@H](C)[C@@H](O[C@H]2C[C@@](C)(OC)[C@@H](O)[C@H](C)O2)[C@H](C)[C@@H](O[C@@H]2O[C@H](C)C[C@H](N(C)C)[C@H]2O)[C@](C)(O)C[C@@H](C)C(=O)[C@H](C)[C@@H](O)[C@]1(C)O [ERYTHROMYCIN] | ≥ 64 µg/mL |
| Cc1onc(-c2ccccc2)c1C(=O)N[C@@H]1C(=O)N2[C@@H]1SC(C)(C)[C@@H]2C(=O)O [OXACILLIN] | 0.5 µg/mL (≈ 1.25 µM) |
| CC1(C)S[C@@H]2[C@H](NC(=O)Cc3ccccc3)C(=O)N2[C@H]1C(=O)O [PENICILLIN G] | 8 µg/mL (≈ 23.9 µM) |
| CN(C)[C@@H]1C(O)=C(C(N)=O)C(=O)[C@@]2(O)C(O)=C3C(=O)c4c(O)cccc4[C@@](C)(O)[C@H]3C[C@@H]12 [TETRACYCLINE] | 32 µg/mL (≈ 72 µM) |
| COc1cc(Cc2cnc(N)nc2N)cc(OC)c1OC [TRIMETHOPRIM] | ≥ 128 µg/mL |
